Assay results: patent US20250248940A1, “Biopolymer Formulations for Drug Delivery” (11584022 Canada Inc., priority 2022, published 2025)

Experiment: release of API into water from dried API-biopolymer pellets, measured by UV/VIS spectroscopy
Type: physicochemical
Conditions: from the dry biopolymer matrix, versus acetyl salicylic acid
Experimental: Briefly biopolymer suspensions were produced with a known quantity of API added to the suspensions. The suspensions with API were then dried as pellets. These pellets were then added to a known volume of water and aliquots of the water were removed periodically to determine the rate of release of the API. The API concentration was measured using UV/VIS spectroscopy. The sample was dried for 10 hours in air and 3 hours in the oven at 50° C. The acetaminophen concentration in dried materials was 29.58% w/w. This figure represents release of acetaminophen into water from the dried acetaminophen doped chitin suspension, where the concentration of acetaminophen, in g/L, is plotted against time, in minutes.

SMILES: CC(=O)Nc1ccc(O)cc1 [acetaminophen]
- release rate compared between drugs: slower release
